Measurements: patent US11096952B2, “Chemicals and methods to prevent and treat TGF-beta mediated activation of fibroblasts to reduce and treat cancer and fibrosis” (Board of Supervisors of Louisiana State University and …, priority 2016, dated 2021)

Experiments:
WPMY-1 fibroblasts = assay: Collagen/Matrigel contraction of WPMY-1 fibroblasts; conditions: WPMY-1 in collagen/Matrigel, 120 nM digoxin, 5 ng/ml TGF-β, 4 days
Procedure: WPMY-1 (A) and MRC-5 (B) fibroblasts were treated with or without 120 nM digoxin±5 ng/ml TGF-β. […] WPMY-1 (C) and MRC-5 (D) fibroblasts embedded in collagen/Matrigel were treated with or without 120 nM digoxin±5 ng/ml TGF-β for 4 days post seeding. Data are shown as percent contracted area from initial 100% well confluence. *P<0.05 and **P<0.01 indicate significant differences (n=3, Values are ±SEM).

EGR1 luciferase reporter = EGR1 luciferase reporter in WPMY-1 cells; format: cell-based, human; conditions: WPMY-1, digoxin 60 or 120 nM, 5 ng/ml TGF-β, 24 hours
Procedure: (§1) A) WPMY-1 human fibroblast cells transfected with SMAD (left) or EGR1 (right) luciferase reporter were treated with or without 5 ng/ml TGF-β in the presence or absence of Digoxin (60 or 120 nM) for 24 hours. Relative luciferase activity is shown. *P<0.05, **P<0.01, ***P<0.001 are significant differences compared to values set to 1 (n=3, Values are ±SEM). B) J2 mouse fibroblast cells were treated with or without 5 ng/ml TGF-β in the presence or absence of increasing concentrations (30, 60, 120, or 240 nM) of digoxin for 24 hours. Representative blot is shown with two exposures of fibronectin to account for strong signal intensity (n=3).
(§2) Finally, J2 mouse fibroblast cells were treated with or without 5 ng/ml TGF-β in the presence or absence of increasing concentrations (30, 60, 120, or 240 nM) of digoxin for 24 hours.

[1] = test system: TGF-β-induced fibronectin expression; assay: Western blot of TGF-β-induced fibronectin in J2 mouse fibroblast cells; format: cell-based; conditions: J2 (3T3-J2) mouse fibroblasts, digoxin 30-240 nM, 5 ng/ml TGF-β, 24 hours
Procedure: as §1, §2
The inventors used 3T3-J2 murine fibroblasts, which are highly resistant to cardiac glycosides compared to theft human counterpart.

C[C@H]1O[C@@H](O[C@H]2[C@@H](O)C[C@H](O[C@H]3[C@@H](O)C[C@H](O[C@H]4CC[C@@]5(C)[C@H](CC[C@@H]6[C@@H]5C[C@@H](O)[C@]5(C)[C@@H](C7=CC(=O)OC7)CC[C@]65O)C4)O[C@@H]3C)O[C@@H]2C)C[C@H](O)[C@@H]1O [digoxin]
TGF-β induced contraction of fibroblasts (WPMY-1 fibroblasts): inhibits TGF-β induced contraction of fibroblasts | EGR-1 dependent promoter (luciferase) activity (EGR1 luciferase reporter): lowers the activation of promoter dependent on EGR-1 | TGF-β-induced fibronectin expression in mouse fibroblasts [1]: did not have an effect on TGF-β-induced fibronectin expression | TGF-β-induced fibronectin expression in mouse fibroblasts ([1]; listed as Digoxin): did not prevent fibronectin induction even at high concentrations
